Assay type in all cases: binding
Assay [1] concerns the target T1, BRD3(1) (Homo sapiens, UniProt Q15059).
T1 construct: Fragments were tested in a thermal shift assay against bromodomains of the BET subfamily; made in house
Kind of assay: Protein stability (thermal) shift assay, BRD3(1). The note with it: compound 10 μM, protein 2 μM; average of triplicate. As to the method:
(§1) Thermal melting experiments were carried out using an Mx3005p real time PCR machine (Stratagene). Proteins were buffered in 10 mM HEPES, pH 7.5, 500 mM NaCl and assayed in a 96-well plate at a final concentration of 2 μM in 20 μL volume. Compounds were added at a final concentration of 10 or 100 μM. SYPRO Orange (Molecular Probes) was added as a fluorescence probe at a dilution of 1 in 1000. Excitation and emission filters for the SYPRO-Orange dye were set to 465 and 590 nm, respectively. The temperature was raised with a step of 3 °C per minute from 25 to 96 °C, and fluorescence readings were taken at each interval. The temperature dependence of the fluorescence during the protein denaturation process was approximated by the equation [drawing 1] where ΔuG is the difference in unfolding free energy between the folded and unfolded state, R is the gas constant, and yF and yU are the fluorescence intensity of the probe in the presence of completely folded and unfolded protein, respectively.[65] The baselines of the denatured and native states were approximated by a linear fit. The observed temperature shifts, ΔTm^obs, were recorded as the difference between the transition midpoints of sample and reference wells containing protein without ligand in the same plate and determined by nonlinear least-squares fit. Temperature shifts (ΔTm^obs) for three independent measurements per proteins/compound are summarized in Supporting Information Table S1.

Assay [2] deals with T2, PCAF (Homo sapiens, UniProt Q92831).
T2 construct: representative BRDs from other structural subfamilies (family I, PCAF); made in house
T2 sequence (Q92831 723-827 limits assumed): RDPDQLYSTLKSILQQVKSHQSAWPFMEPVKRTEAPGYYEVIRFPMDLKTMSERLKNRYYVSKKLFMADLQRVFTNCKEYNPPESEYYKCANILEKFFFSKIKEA
Kind of assay: Protein stability (thermal) shift assay, PCAF. The note with it: for ΔTm at 10 µM: compound 10 μM, protein 2 μM, average of triplicate. As to the method: as §1

In assay [3] the target is T3, BRD9 (Homo sapiens, UniProt Q9H8M2).
T3 construct: made in house
T3 sequence (Q9H8M2 136-240 limits assumed): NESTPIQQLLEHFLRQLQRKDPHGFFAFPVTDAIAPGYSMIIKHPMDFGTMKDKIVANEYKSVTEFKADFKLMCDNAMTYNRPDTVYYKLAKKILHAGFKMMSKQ
Kind of assay: Isothermal titration calorimetry, BRD9. As to the method:
(§2) Experiments were carried out on an ITC200 titration microcalorimeter from MicroCal, LLC (GE Healthcare) equipped with a Washing module, with a cell volume of 0.2003 mL, and a 40 μL microsyringe. Experiments were carried out at 15 °C while stirring at 1000 rpm, in ITC buffer (50 mM HEPES, pH 7.5 (at 25 °C), 150 mM NaCl). The microsyringe was loaded with a solution of the protein sample (300−740 μM protein for BRD9 and BRD4(1), respectively, in ITC buffer) and was carefully inserted into the calorimetric cell which was filled with an amount of the ligand (0.2 mL, 20–25 μM in ITC buffer). The system was first allowed to equilibrate until the cell temperature reached 15 °C, and an additional delay of 60 s was applied. All titrations were conducted using an initial control injection of 0.3 μL followed by 38 identical injections of 1 μL with a duration of 2 s (per injection) and a spacing of 120 s between injections. The titration experiments were designed in such a fashion as to ensure complete saturation of the proteins before the final injection. The heat of dilution for the proteins was independent of their concentration and corresponded to the heat observed from the last injection, following saturation of ligand binding, thus facilitating the estimation of the baseline of each titration from the last injection. The collected data were corrected for protein heats of dilution (measured on separate experiments by titrating the proteins into ITC buffer) and deconvoluted using the MicroCal Origin software supplied with the instrument to yield enthalpies of binding (ΔH) and binding constants (KB) in the same fashion as that previously described in detail by Wiseman and co-workers.[66] Thermodynamic parameters were calculated using the basic equation of thermodynamics (ΔG = ΔH – TΔS = −RT ln KB, where ΔG, ΔH, and ΔS are the changes in free energy, enthalpy, and entropy of binding, respectively). In all cases a single binding site model was employed, supplied with the MicroCal Origin software package.

Assay [4] deals with T4, BRD2(2) (Homo sapiens, UniProt P25440).
T4 construct: made in house
T4 sequence (P25440 344-453 limits assumed): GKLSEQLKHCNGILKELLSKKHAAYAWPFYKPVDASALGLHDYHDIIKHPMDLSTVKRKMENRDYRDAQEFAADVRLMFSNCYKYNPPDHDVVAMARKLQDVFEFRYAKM
Kind of assay: Protein stability (thermal) shift assay, BRD2(2). Particulars: compound 10 μM, protein 2 μM; average of triplicate. As to the method: as §1

In assay [5] the target is T5, BRDT(1) (Homo sapiens, UniProt Q58F21).
T5 construct: made in house
The experiment in a line: Protein stability (thermal) shift assay, BRDT(1). The note with it: compound 10 μM, protein 2 μM; average of triplicate. The protocol: as §1

Assay [6] addresses T6, BRD3(2) (Homo sapiens, UniProt Q15059).
T6 construct: made in house
The experiment in a line: Protein stability (thermal) shift assay, BRD3(2). The note with it: compound 10 μM, protein 2 μM; average of triplicate. As to the method:
as §1

Assay [7] has as its target T7, BAZ2B (Homo sapiens, UniProt Q9UIF8).
T7 construct: representative BRDs from other structural subfamilies (family I, PCAF); family III, CREBBP; family IV, BRD9; family V, BAZ2B; made in house
T7 sequence (Q9UIF8 2060-2164 limits assumed): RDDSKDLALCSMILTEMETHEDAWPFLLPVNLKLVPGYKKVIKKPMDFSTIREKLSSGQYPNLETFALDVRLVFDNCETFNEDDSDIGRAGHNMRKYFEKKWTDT
The experiment in a line: Protein stability (thermal) shift assay, BAZ2B. The note with it: compound 10 μM, protein 2 μM; average of triplicate; read-out: ΔTm Shift, BAZ2BA. The protocol:
as §1

The target of assay [8] is T8, PB1(5) (Homo sapiens, UniProt Q86U86).
T8 construct: made in house
T8 sequence (Q86U86 653-763 limits assumed): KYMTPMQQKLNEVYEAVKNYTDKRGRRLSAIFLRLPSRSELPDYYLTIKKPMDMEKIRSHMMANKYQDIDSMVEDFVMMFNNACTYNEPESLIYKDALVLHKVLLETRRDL
The experiment in a line: Protein stability (thermal) shift assay, PB1(5). The note with it: compound 10 μM, protein 2 μM; average of triplicate. As to the method:
as §1

Assay [9] addresses T9, BRDT(2) (Homo sapiens, UniProt Q58F21).
T9 construct: made in house
Kind of assay: Protein stability (thermal) shift assay, BRDT(2). Particulars: compound 10 μM, protein 2 μM; average of triplicate; read-out: ΔTm Shift, BRDT(2). As to the method: as §1

The target in assay [10] is T10, BRD2(1) (Homo sapiens, UniProt P25440).
T10 construct: Fragments were tested in a thermal shift assay against bromodomains of the BET subfamily; made in house
T10 sequence (P25440 74-180 limits assumed): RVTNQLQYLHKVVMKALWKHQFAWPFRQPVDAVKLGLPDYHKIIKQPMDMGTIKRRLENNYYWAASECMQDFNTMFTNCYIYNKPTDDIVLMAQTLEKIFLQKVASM
Kind of assay: Protein stability (thermal) shift assay, BRD2(1). Particulars: for ΔTm at 10 µM: compound 10 μM, protein 2 μM, average of triplicate. As to the method:
as §1

Assay [11] has as its target T11, CREBBP (Homo sapiens, UniProt Q92793).
T11 construct: small thermal shits (1.0–1.3 °C) for the bromodomain of CREBBP; made in house
Kind of assay: Protein stability (thermal) shift assay, CREBBP. The note with it: compound 10 μM, protein 2 μM; average of triplicate; read-out: ΔTm Shift, CREBBP. The protocol: as §1

For assay [12], the target named is T12, BRD4(1) (Homo sapiens, UniProt O60885).
T12 construct: made in house
Kind of assay: Protein stability (thermal) shift assay, BRD4(1). Particulars: for ΔTm at 10 µM: compound 10 μM, protein 2 μM, average of triplicate, read-out: ΔTm Shift, BRD4(1). As to the method: as §1

Assay [13] deals with T13, BRD4(2) (Homo sapiens, UniProt O60885).
T13 construct: made in house
The experiment in a line: Protein stability (thermal) shift assay, BRD4(2). Particulars: compound 10 μM, protein 2 μM; average of triplicate. The protocol: as §1

Assay [14] concerns human bromodomains (panel). The experiment in a line: Protein stability (thermal) shift assay, whole panel of human bromodomains. The note with it: 10 μM compound. The protocol: as §1
Assay [15] has as its target T12, BRD4(1). The experiment in a line: Isothermal titration calorimetry, BRD4(1). As to the method:
as §2

The target of assay [16] is T3, BRD9. The experiment in a line: Protein stability (thermal) shift assay, BRD9. The protocol: as §1
Where [17] appears, read: ITC, 50 mM HEPES pH 7.5, 150 mM NaCl, 15 °C, reverse titration, triplicate.
The mark [18] stands for this setting: compound 10 μM, protein 2 μM, average of triplicate, read-out: ΔTm Shift, BRD9.
The mark [19] stands for this setting: ITC, 50 mM HEPES pH 7.5, 150 mM NaCl, 15 °C, reverse titration, triplicate, read-out: KD.
The mark [20] stands for this setting: ITC, read-out: dissociation constant.
Where [21] appears, read: LE = ΔG/N, N number of non-hydrogen atoms.

Like-named read-outs stand apart in the source and are kept apart here.

T6 sequence (Q15059 306-415 limits assumed): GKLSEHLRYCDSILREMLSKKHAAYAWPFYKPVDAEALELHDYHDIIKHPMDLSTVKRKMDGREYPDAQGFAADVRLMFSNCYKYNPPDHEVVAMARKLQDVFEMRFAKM
T11 sequence (Q92793 1085-1192 limits assumed): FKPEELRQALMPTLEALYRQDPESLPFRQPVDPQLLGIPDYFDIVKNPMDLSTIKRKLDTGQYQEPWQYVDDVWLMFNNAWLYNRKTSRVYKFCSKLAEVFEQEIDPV
T1 sequence (Q15059 34-140 limits assumed): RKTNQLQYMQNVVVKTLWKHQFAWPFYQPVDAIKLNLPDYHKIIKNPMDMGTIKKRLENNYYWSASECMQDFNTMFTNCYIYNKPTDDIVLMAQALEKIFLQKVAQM

`COc1ccc(Br)cc1-c1nc(N)nc2c1ncn2C` [Compound 8b, 2-Amino-6-(5-bromo-2-methoxyphenyl)-9-methylpurine]: the ΔTm at 10 µM was determined as 0.147 °C in assay [1]; 0.9 °C in [2]; 0.6 °C in assay [4]; 0.4 °C in [5]; 0.467 °C in [6]; 0.6 °C in assay [7]. In addition, the ΔTm at 10 µM in assay [8] is 0.7 °C; in assay [9], 0.0167 °C; in assay [10], 0.163 °C; in assay [11] it was 0.74 °C; in assay [12], 0.323 °C; in assay [13], 0.337 °C. For the same compound, the KD result in [3] (setting [17]) is “no binding/weak”. The “binding to the bromodomain panel in the ΔTm assay (in words)” value in [14] is listed as “completely abolished bromodomain binding”.
`Nc1nc(Br)c2nc[nH]c2n1` [Compound 2a, 2-amino-6-bromo-9H-purine]: the KD result in [3] (setting [17]) and in assay [15] (setting [17]) was “no binding/weak” each time. The ΔTm at 10 µM in [16] (setting [18]) turned out to be 0.01 °C; in assay [16] (thermal shift, 10 μM compound, 2 μM protein, read-out: ΔTm) it was 1.6 °C.
For `Nc1nc(-c2ccccc2)c2nc[nH]c2n1` [Compound 3a, 2-Amino-6-phenyl-9H-purine], the ΔTm at 10 µM in assay [1] was found to be 0.9 °C; in [2], 1.3 °C; in assay [4], 0.9 °C; in assay [5], 0.739 °C; in assay [6], 0.6 °C; in assay [7], 0.537 °C. The ΔTm at 10 µM in assay [16] (setting [18]) is -0.107 °C; in assay [8], 0.9 °C; in [9] it was 0.7 °C; in assay [10] it was 1.7 °C; in assay [11], 0.847 °C; in assay [12], 1.4 °C. For the same compound, the ΔTm at 10 µM in assay [13] came to 0.5 °C. Moreover, the “stabilization of PCAF in thermal melt assay (in words)” value in assay [2] (thermal shift, 10 μM compound) is “stabilized”. Besides, the Kd came to 8.47 ± 0.237 µM in [3] (setting [19]), 8.5 µM in assay [3] (setting [20]), 12 ± 0.743 µM in [15] (setting [19]) and 12 µM in [15] (setting [20]). Moreover, the ΔG result in assay [3] (ITC, 15 °C) was “–6.69 kcal/mol”; in [15] (ITC, 15 °C), “–6.48 kcal/mol”. The “N (stoichiometry)” value in [3] (ITC, 15 °C, reverse titration) turned out to be 0.99 ± 0.010; in [15] (ITC, 15 °C, reverse titration), 1.03 ± 0.049. The “LE (ligand efficiency)” value came to 0.42 in assay [3] (setting [21]) and 0.41 in [15] (setting [21]). Also, in assay [16] (thermal shift, 10 μM compound), the “binding to BRD9 in the ΔTm assay (in words)” value was “lack of affinity”. Moreover, the “stabilization of BRD2(1) in thermal melt assay (in words)” value in assay [10] (thermal shift, 10 μM compound) is reported as “stabilized”. Further, in [12] (thermal shift, 10 μM compound), the “stabilization of BRD4(1) in thermal melt assay (in words)” value is “stabilized”.

For the origin of these results see paper PMC4403932 (Journal of Medicinal Chemistry, 2015).
